Laboratory results: patent US20260257992A1, “AGONISTS OF SMALL HETERODIMER PARTNER FOR CANCER THERAPY” (THE BOARD OF TRUSTEES OF THE UNIVERSITY OF ILLINOIS, priority 2023, published 2026)

Assays:
[1] = system: 4T1 tumors; test: Orthotopic 4T1 primary tumor growth; format: in vivo, mouse; details: DSHN combined with αPDL1
Source text: FIG. 3A-3F. DSHN, a tool small molecule agonist of NR0B2 reduces macrophage/dendritic cell induced Treg expansion and tumor growth in murine models. […] (B) Dendritic cells (left-CD11B^+; CD11C^+) and CD4^+ T cells (right) were isolated from MMTV-PyMT tumors by FACS, and treated with vehicle or DSHN for 3d. The resulting frequency of Treg (CD4^+; CD25^+; FoxP3^+) was quantified by flow cytometry (right graph), (N=3-5/group, t test). […] The percentage of divided CD8+ T cells in the second round was quantified. (D) DSHN increases efficacy of αPDL1 therapy on orthotopic E0771 tumors. An optimal number of E0771 cells were grafted into FoxP3-EGFP mice and allowed to grow until tumors reached 100 mm^3. […] At the end of the study, lungs were removed and imaged ex vivo, quantified data indicated (N=10, 1-way ANOVA followed by Newman-Keuls multiple comparison test). […]
We then evaluated DSHN in a model where a low, suboptimal number of E0771-luc cells were grafted orthotopically. […] Treatment was ceased after 18 days and mice were monitored through time. […] We next assessed the effects of DSHN combined with αPDL1 on growth of primary tumors (optimal number of cells used to establish graft). […] We then evaluated the ability of DSHN to impact established metastatic disease—a stage that is refractory to standard of care therapy and immune checkpoint blockade. […]

[2] = system: Treg expansion; test: Treg expansion in co-culture with compound-treated splenic CD11C+ dendritic cells; format: cell-based, mouse; set-up: key to Treg expansion Dendritic Cells: ✓: using strict cutoffs with respect to DSHN for passing each metric; X: using strict cutoffs with respect to DSHN for passing each metric
Method: Preparation of Bone Marrow-Derived Macrophages (BMDMs) and Dendritic Cells. Bone marrow cells were collected from mouse tibia and femur. Cells were passed through 70-micron cell strainer and subsequently cultured 10 mL complete RPMI media supplemented with 20 ng/mL of recombinant murine M-CSF (576406; BioLegend, 315-02 PeproTech). On day 3, additional 5 ml of the complete media was added. On day 7, media was replaced. BMDMs were harvested on day 10 using cell stripper solution for further experiments. Dendritic cells were isolated from the spleens of wildtype, using mouse CD11c UltraPure MicroBeads (130-125-835; Miltenyi Biotec) according to the manufacturer's instructions) and cultured in RPMI medium supplemented with 10% heat-inactivated charcoal-stripped FBS, 50 μM β-mercaptoethanol, 1% sodium pyruvate, 1% nonessential amino acids, % penicillin/streptomycin, and 1% Glutamax.
In vitro Treg expansion assays. T cells were cultured in RPMI medium supplemented with 10% heat-inactivated charcoal-stripped FBS, 50 μM β-mercaptoethanol (Gibco), 1% sodium pyruvate, 1% nonessential amino acids, % penicillin/streptomycin, and 1% Glutamax (Gibco). Naïve CD4^+ T cells were isolated from the spleens of wildtype and OT-II, using Naive CD4^+ T Cell Isolation Kit (Miltenyi Biotec according to the manufacturer's instructions). T cells were labeled with the vital dye CFSE (BioLegend) or Cell Trace Violet (ThermoFisher) according to the manufacturer's instructions. For wildtype Treg expansion in presence of antigen presenting cells, naïve CD4^+ T cells were co-cultured with APC at indicated ratio in the presence of 0.5 μg/mL (anti-CD3 BioLegend), 0.5 ng/mL TGFβ (BioLegend) and 0.5 ng/ml IL-2 (BioLegend) for 72 hr at 37° C. For OT-II Treg expansion, OTII naïve CD4^+ T cells from OT-II mice were activated by antigen presentation by culturing BMDMs were primed with 10 μg/mL OVA323-339 (Bachem) and 0.5 μg/mL LPS (Sigma). naïve CD4+ T cells from OTII mice were co-cultured with primed APC at indicated ratio for 72 hrs. After 72 hrs of culture, cells were transferred into V-bottom plates (BD), pelleted by centrifugation and incubated with antibody staining mix containing Ghost Dye™ Red 780 viability dye diluted in PBS for 15 minutes at 4° C. Cell surface antigens were stained for 15 minutes at 4° C. with an antibody staining mix containing Ghost Dye™ Red 780 viability dye diluted in PBS. Cells were fixed and permeabilized with BD Cytofix/Cytoperm™ for 20 minutes at 4° C. Antibodies against intracellular antigens were diluted in 1×BD Perm/Wash™ buffer and cells were stained for 30 minutes at 4° C. Cytometry data were acquired on a LSRII, Fortessa, Symphony A1 (Becton Dickinson, NJ). Foxp3 induction was assessed by expression of FOXP3.

SMILES	Growth of established 4T1 tumors, combined with αPDL1 [1]	Tregs, splenic CD11C+ (DC-enriched) cells ([2]; 50 μM DSHN-OMe versus 100 μM DSHN)	Treg expansion Dendritic Cells ([2]; pass/fail with respect to DSHN)
CCN(CC)S(=O)(=O)c1cccc2cc(C(=O)O)c(O)cc12 [DSHN, reference compound]	decreased growth		
CCN(CC)S(=O)(=O)c1cccc2cc(C(=O)OC)c(O)cc12 [DSHN-OMe, Methyl 5-(N,N-diethylsulfamoyl)-3-hydroxy-2-naphthoate]		significantly fewer Tregs compared to twice the dose of DSHN	✓
